The source of these data is paper PMC4666783 (Organic & biomolecular chemistry, 2015).

Read-outs that look alike come from different tables or passages of the source.

In assay [1] the test system is HIVDRV^RP20 drug resistant strains of HIV. In words: microbe, parasite or virus in culture. The class given is cell-based, HIV-1.
The target of another assay is HIV-1 protease (Human immunodeficiency virus type 1 group M subtype B, UniProt P04585). The experiment in a line: HIV-1 protease enzyme inhibition, assay developed by Toth and Marshall. It is filed as biochemical. To be noted: for enzyme inhibitory activity: result in words, comparator as stated.
The test system of the next assay is HIV-1. The experiment in a line: Antiviral activity, MTT assay. It is filed as cell-based. To be noted: for IC50: Human immunodeficiency virus 1, read-out: IC50 (antiviral); for antiviral potency: result in words, comparator as stated.

As for `COc1ccc(S(=O)(=O)N(CC(C)C)C[C@@H](O)[C@H](Cc2ccccc2)NC(=O)O[C@H]2CCO[C@H]3OC[C@H](O)[C@H]32)cc1` [Inhibitor 30f, (3R,3aS,4S,7aS)-3-Hydroxyhexahydro-2H-furo[2,3-b]pyran-4-yl (2S,3R)-3-hydroxy-4-(N-isobutyl-4-methoxyphenyl-sulfonamido)-1-phenylbutan-2-ylcarbamate], the “antiviral activity against resistant variant” value in assay [1] (HIVDRV^RP20, preliminary assessment) is on record as “maintained full antiviral activity”. For the same molecule, the IC50 in assay [1] (Human immunodeficiency virus 1, read-out: IC50 against HIVDRV^RP20) turned out to be 3.3 nM; in the assay with HIV-1, 3.15 nM. Moreover, affinity on HIV-1 protease was put at a Ki of 0.06 nM. Also, the “fold less potent than compound 30b” value on HIV-1 protease (enzyme inhibitory and antiviral activity, 30f vs 30b) came out at 10 fold.

Consider `COc1ccc(S(=O)(=O)N(CC(C)C)C[C@@H](O)[C@H](Cc2ccccc2)NC(=O)O[C@H]2CCO[C@H]3OC[C@H](N(C)C)[C@H]32)cc1` [Inhibitor 30m, (3R,3aS,4S,7aS)-3-(Dimethylamino)hexahydro-2H-furo[2,3-b]pyran-4-yl (2S,3R)-3-hydroxy-4-(N-isobutyl-4-methoxyphenylsulfonamido)-1-phenylbutan-2-ylcarbamate], for which, on HIV-1 protease, the “enzyme inhibitory activity” value is “reduction in enzyme Ki”. The “fold improved antiviral activity over 30i” value in the assay with HIV-1 (30m vs 30i) amounted to 3 fold.

Turning to `CCN[C@H]1CO[C@@H]2OCC[C@H](OC(=O)N[C@@H](Cc3ccccc3)[C@H](O)CN(CC(C)C)S(=O)(=O)c3ccc(N)cc3)[C@@H]21` [Inhibitor 30k, (3R,3aS,4S,7aS)-3-(Ethylamino)hexahydro-2H-furo[2,3-b]pyran-4-yl (2S,3R)-4-(4-amino-N-isobutylphenylsulfonamido)-3-hydroxy-1-phenylbutan-2-ylcarbamate], the “antiviral potency” value in the assay on HIV-1 was “significant reduction in antiviral potency”.

As to `COc1ccc(S(=O)(=O)N(CC(C)C)C[C@@H](O)[C@H](Cc2ccccc2)NC(=O)O[C@H]2CCO[C@H]3OC[C@@H](OC)[C@H]32)cc1` [Inhibitor 30a, (3S,3aR,4S,7aS)-3-Methoxyhexahydro-2H-furo[2,3-b]pyran-4-yl (2S,3R)-3-hydroxy-4-(N-isobutyl-4-methoxyphenylsulfonamido)-1-phenylbutan-2-yl carbamate], the Ki at HIV-1 protease (at least 5 data points, standard error less than 7%) stood at 1.38 nM.

Regarding `CCO[C@H]1CO[C@@H]2OCC[C@H](OC(=O)N[C@@H](Cc3ccccc3)[C@H](O)CN(CC(C)C)S(=O)(=O)c3ccc(OC)cc3)[C@@H]21` [Inhibitor 30d, (3R,3aR,4S,7aS)-3-Ethoxyhexahydro-2H-furo[2,3-b]pyran-4-yl (2S,3R)-3-hydroxy-4-(N-isobutyl-4-methoxyphenyl-sulfonamido)-1-phenylbutan-2-ylcarbamate], at HIV-1 protease, affinity was put at a Ki of 0.0033 nM and the “enzyme inhibitory activity” value is reported as “comparable enzyme inhibitory activity”.

At HIV-1 protease, `COc1ccc(S(=O)(=O)N(CC(C)C)C[C@@H](O)[C@H](Cc2ccccc2)NC(=O)O[C@H]2CCO[C@H]3OC[C@H](OCc4ccccc4)[C@H]32)cc1` [Inhibitor 30e, (3R,3aR,4S,7aS)-3-(Benzyloxy)hexahydro-2H-furo[2,3-b]pyran-4-yl (2S,3R)-3-hydroxy-4-(N-isobutyl-4-methoxy-phenylsulfonamido)-1-phenylbutan-2-ylcarbamate] displayed a Ki of 0.012 nM. In addition, the IC50 in the assay on HIV-1 came out at 0.45 nM.

On to `COc1ccc(S(=O)(=O)N(CC(C)C)C[C@@H](O)[C@H](Cc2ccccc2)NC(=O)O[C@H]2CCO[C@H]3OC[C@H](OC)[C@H]32)cc1` [Inhibitor 30b, (3R,3aR,4S,7aS)-3-Methoxyhexahydro-2H-furo[2,3-b]pyran-4-yl (2S,3R)-3-hydroxy-4-(N-isobutyl-4-methoxyphenylsulfonamido)-1-phenylbutan-2-ylcarbamate], for which the affinity on HIV-1 protease corresponds to a Ki of 0.0045 nM. At HIV-1 protease (30b vs 30a), the “fold better enzymatic Ki compared to compound 30a” value is listed as “over 300 fold”. In addition, in the assay with HIV-1, the IC50 turned out to be 0.2 nM and the “antiviral potency” value is reported as “subnanomolar antiviral activity”.

On to `CC(C)CN(C[C@@H](O)[C@H](Cc1ccccc1)NC(=O)O[C@H]1CO[C@H]2OCC[C@H]21)S(=O)(=O)c1ccc(N)cc1` [Darunavir, darunavir, reference compound], for which, in the assay with HIV-1, the IC50 turned out to be 1.6 nM.

In the case of `CCN[C@H]1CO[C@@H]2OCC[C@H](OC(=O)N[C@@H](Cc3ccccc3)[C@H](O)CN(CC(C)C)S(=O)(=O)c3ccc(OC)cc3)[C@@H]21` [Inhibitor 30j, (3R,3aS,4S,7aS)-3-(Ethylamino)hexahydro-2H-furo[2,3-b]pyran-4-yl (2S,3R)-3-hydroxy-4-(N-isobutyl-4-methoxyphenylsulfonamido)-1-phenylbutan-2-ylcarbamate], the “antiviral potency” value in the assay on HIV-1 is “subnanomolar antiviral activity”.

Molecule `CO[C@H]1CO[C@@H]2OCC[C@H](OC(=O)N[C@@H](Cc3ccccc3)[C@H](O)CN(CC(C)C)S(=O)(=O)c3ccc(N)cc3)[C@@H]21` [Inhibitor 30c, (3R,3aR,4S,7aS)-3-Methoxyhexahydro-2H-furo[2,3-b]pyran-4-yl (2S,3R)-4-(4-amino-N-isobutylphenylsulfonamido)-3-hydroxy-1-phenylbutan-2-ylcarbamate] yielded a Ki on HIV-1 protease of 0.037 nM. In the assay with HIV-1, the IC50 was found to be 15 nM.

Take `CCCN[C@H]1CO[C@@H]2OCC[C@H](OC(=O)N[C@@H](Cc3ccccc3)[C@H](O)CN(CC(C)C)S(=O)(=O)c3ccc(OC)cc3)[C@@H]21` [Inhibitor 30l, (3R,3aS,4S,7aS)-3-(Propylamino)hexahydro-2H-furo[2,3-b]pyran-4-yl (2S,3R)-3-hydroxy-4-(N-isobutyl-4-methoxyphenylsulfonamido)-1-phenylbutan-2-ylcarbamate]: the “fold reduction in antiviral potency compared to 30j” value in the assay on HIV-1 (30l vs 30j) was roughly 3 fold.

Broadly, the IC50 is the concentration at which inhibition is half-maximal. By Ki is commonly meant the dissociation constant of the complex between target and ligand, obtained from inhibition or displacement. High values mean lower affinity, low ones higher affinity.
